Reference: patent publication US20120222139A1, “Cancer Specific Mitotic Network” (THE REGENTS OF THE UNIVERSITY OF CALIFORNIA, priority 2009, published 2012)

B1: HJURP shRNA: shRNA against HJURP (SEQ ID NO: 56 and 57) cloned into pSUPER.retro.puro retroviral vector (nucleic acid)
sense: GATCCCCGAGCGATTCATCTTCATCATTCAAGAGATGATGAAGATGAATCGCTCTTTTTGGAA
antisense: AGCTTTTCCAAAAAGAGCGATTCATCTTCATCATCTCTTGAATGATGAAGATGAATCGCTCGGG

Tests used:
Format in all cases: cell-based, human
[1] = tested on: panel of 53 breast cancer cell lines; assay: Cell viability/growth assay and dose response (GI50), CellTiter-Glo; settings: for GI50 values in cell lines with a high MNAI as compared to a low MNAI: breast cancer cell lines, FIG. 6; for effectiveness by breast cancer subtype: panel of 50 breast cancer cell lines that included both basal and luminal cell lines
Method: Human non-malignant and breast cancer cell lines, established from normal and human breast cancer samples, are publicly available and were used in the development of the mitotic network. The source of these cells includes nearly 55 well-characterized breast cell lines with genomic information (i.e. gene copy numbers of various genes) and gene expression data such as gene signatures characteristic of each cell line. Information that directs optimal incubation conditions are detailed in The cell incubational condition of the cell lines was shown reference (Neve, R. M. et al. Cancer Cell 10, 515-527 (2006).
The inhibitor compounds used were small molecule inhibitors. Theses small-molecule inhibitors for PLK1 (GSK461364), CENPE (GSK923295) and AURKB (GSK1070916) were provided by GlaxoSmithKline Inc. Stock solutions were made at a concentration of 10 mM in DMSO and stored at −20° C. Compounds were diluted (1:5 serial dilution), ranging between 0.0768 nM to 30 μM.
The cell viability and growth assay and dose response (GI50) experiments were conducted following dose-response curves that were determined according to the National Cancer Institute (NCI), National Institute of Health (NIH) guidelines. In brief, cell suspensions were plated into 96-well plates in 100 μl growth media. Inoculates were allowed a pre-incubation period of 24 hours at 37° C. for stabilization. Cells were treated with 9 doses in triplicates for 72 hours with GSK461364 or GSK1070916. Cell proliferation was measured with CellTiter-Glo® Luminescent Cell Viability Assay (Promega, Madison, Wis.). After subtraction of the baseline (the viability of the cells just before treatment, time 0), the absorbance was plotted. Total growth inhibition doses and 50% growth inhibition doses GI50 were calculated by GraphPad Prism4 software (GraphPad Software, Inc., La Jolla, Calif.).
Human non-malignant and breast cancer cell lines have been established from normal and human breast cancer samples. The cell lines described in this study derived from 49 malignant and 4 non-malignant breast tissues and growth conditions for the cell lines have been reported previously This resource consists of nearly 54 well-characterized breast cell lines with information on genomic and gene expression signatures. The cell incubational condition of the cell lines was shown previously by some of the inventors in Neve, R. M. et al. Cancer Cell 10, 515-527 (2006).
The small-molecule inhibitors for PLK1 (GSK461364), CENPE (GSK923295) and AURKB (GSK1070916) were provided by GlaxoSmithKline, Inc. Stock solutions were made at a concentration of 10 mM in DMSO and stored at −20° C. Compounds were diluted (1:5 serial dilution) to produce test drug concentrations ranging from 0.0768 nM to 30 μM.
Dose-response curves were determined according to the National Cancer Institute NIH guidelines. In brief, cell suspensions were aliquoted into 96-well plates in 100 μl growth media. Inoculates were allowed a preincubation period of 24 hours at 37° C. for stabilization. Cells were treated with 9 doses in triplicate for 72 hours with GSK461364 or GSK1070916. Cell proliferation was measured with CellTiter-Glo® Luminescent Cell Viability Assay (Promega, Madison. WI). After subtraction of the baseline (an estimate of the number of the cells just before treatment, time 0), the absorbance was plotted. Total growth inhibition doses and 50% growth inhibition doses GI50 were calculated by GraphPad Prism4 software (GraphPad Software, Inc., La Jolla, Calif.).
The correlation among the cellular GI50 values of GSK461364, GSK1070916 and GSK92325 was examined by Pearson correlation test. Tumor expression profiles were clustered using the mitotic network genes. Kaplan-Meier survival curves were generated for patients stratified into groups of high (upper tertile) and low (lower tertile) MNAI to evaluate differences in disease-free survival (DFS). […]

[2] = tested on: sensitive (HCC38) or resistant (MDAMB175) breast cancer cell line; assay: Treatment with mitotic apparatus inhibitors alone or in combination of two; settings: HCC38 (sensitive) and MDAMB175 (resistant), FIG. 8
Method: Dose response to GSK461364, GSK923295 and GSK1070916 was assayed individually or in combination in different breast cancer subtypes. FIG. 8A is a graph of response to single and combination doses of PLK1 and AURKB inhibitors; FIG. 8B is a graph of response to single and combination doses of PLK1 and CENPE inhibitors; and FIG. 8C is a graph of response to single and combination doses of CENPE and AURKB inhibitors.
In that case, combinations of mitotic apparatus inhibitors would not be expected to show additive or synergistic effects. We tested this by treatment of sensitive and resistant breast cancer cell lines with GSK461364 or GSK1070916 or GSK923295 alone and in combination two of them at different doses. […] That being the case, deployment of drugs targeting other genes in the mitotic apparatus network might contribute to development of a mitotic apparatus therapeutic armamentarium that could effectively counter development of drug resistance and provide durable treatments that will be effective against metastasis. Small molecular inhibitors have already been reported as under development for AURKA (MLN8054), CHEK2 (PD-321852). […] Work developing the mitotic network informs that inhibitors of these genes will be preferentially be effective in tumors with high MNAIs and are thus top candidates for drug development.
This was tested by treating a sensitive (HCC38) or resistant (MDAMB175) breast cancer cell line with GSK461364, GSK1070916 and GSK923295 either alone or in combination.

cells with HJURP shRNA = assay: Growth of cells with HJURP shRNA (data not shown)
[3] = tested on: MDAMB231 breast cancer cells; assay: Radiation sensitivity, high content imaging of cell number and apoptotic cells; settings: MDAMB231, 72 hours after X-ray radiation, FIG. 20f
Method: MDAMD231 cells are more sensitive to radiation treatment than T47D cells. […] There are more apoptosis in MDAMB231 cells than T47D cells. […] BT20 cells are more sensitive to radiation treatment than MCF10A cells. […] There are more apoptosis in BT20 cells than MCF10A cells.
High content imaging to assess cell number and apoptotic cells. The effects on cell growth and apoptosis were assessed by a Cellomics high-content image screening system (Cellomics, Thermo Fisher Scientific Inc., Pittsburgh, Pa., USA) after breast cancer cells exposed to a single dose of 0 (sham), 1, 2, 4, 6, 8 or 10 Gy X-ray radiation emitted from an irradiator (model 43855F, Faxitron X-ray Corporation, Lincolnshire, Ill., USA). Live cells in 96 well plates with six replicates from each treatment were stained with 1 μmol/L YO-PRO-1 positive cells.
Seventy-two hours after radiation, we measured cell growth and apoptosis using high-content image analysis. […] Similar results were found in additional cell lines BT20 with high levels of HJURP and MCF10A with low levels of HJURP (FIG. 20c, d). Finally we designed […] (shRNA) against HJURP and generated stable transfectants in a human breast cancer cell line (MDAMB231).

[4] = tested on: HJURP protein in MDAMB231; assay: HJURP protein level by Western blot after HJURP shRNA; settings: stable transfectants in MDAMB231, Western blotting, FIG. 20e
Method: For Western blots, […] of protein extracts per lane were electrophoresed with denaturing sodium doedecyl sulfate (SDS)-polyacrylamide gels (4% to 12%), transferred to PVDF membranes (Millipore, Temecula, Calif., USA), and incubated with HJURP antibody 1:500 (Rabbit, HPA008436, Sigma-Aldrich, St. Louis, Mo., USA) and actin (goat, sc-1616, Santa Cruz Biotechnology, Santa Cruz, Calif., USA) diluted with blocking buffer (927-40000, LI-COR Biosciences, Lincoln, Nebr., USA) The membranes were washed four times with TBST and treated with 1:10,000 dilution of Alex Fluor 680 donkey anti-rabbit (A10043 Invitrogen, Carlsbad, Calif., USA) and IRDye 800CW conjugated donkey anti-goat (611-731-127, Rockland, Gilbertsville, Pa., USA) to detect HJURP and actin respectively. The signals were detected by infrared imaging (LI-COR Biosciences, Lincoln, Nebr., USA). Images were recorded as TIFF files for quantification.
Protein levels were measured by quantifying infrared imaging recorded from labeled antibodies using Scion Image. For each protein, the blots were made for 7 sets of 11 cell lines, each set including the same pair (SKBR3 and MCF12A) to permit intensity normalization across sets. […]
Seventy-two hours after radiation, we measured cell growth and apoptosis using high-content image analysis. […]

Molecule | GI50 values in cell lines with a high MNAI as compared to a low MNAI [1] | effectiveness by breast cancer subtype [1] | response to combination of compounds against two different mitotic apparatus proteins versus alone [2] | cell growth (cells with HJURP shRNA) | sensitivity to radiation [3] | down-regulation of HJURP protein levels [4] [%]
C[C@@H](Oc1cc(-n2cnc3ccc(CN4CCN(C)CC4)cc32)sc1C(N)=O)c1ccccc1C(F)(F)F [GSK461364] | significantly lower in cell lines with a high MNAI | most effective against basal cell breast cancer subtypes | did not increase the response in either cell type |  |  | 
CC(C)Oc1ccc(C(=O)N[C@H](CNC(=O)CN(C)C)Cc2ccc(-c3cn4cccc([C@H](C)O)c4n3)cc2)cc1Cl [GSK923295] | significantly lower in cell lines with a high MNAI | most effective against basal cell breast cancer subtypes | did not increase the response in either cell type |  |  | 
CCn1cc(-c2ccnc3[nH]c(-c4cccc(CN(C)C)c4)cc23)c(-c2ccc(NC(=O)N(C)C)cc2)n1 [GSK1070916] | significantly lower in cell lines with a high MNAI | most effective against basal cell breast cancer subtypes | did not increase the response in either cell type |  |  | 
B1 |  |  |  | grew slowly | reduced the sensitivity to radiation | 75
